Reference: patent publication US12357695B2, “Peptides and nanoparticles for intracellular delivery of molecules” (AADIGEN, LLC, priority 2019, dated 2025)
Entries after “also recorded” stand apart in the source; their conditions may differ. Square brackets hold non-standard residues; d marks the D form. Ends that are not written are not given here. Stearyl = stearyl group covalently linked to the N-terminus; Aun = NCCCCCCCCCCC(=O)O; βAla = NCCC(=O)O

Assays:
[1] = system: A375/Luc cells; experiment: Cellular delivery of siRNA targeting Luciferase, luciferase silencing at 48 hrs; assay type: cell-based; details: for reduction of luciferase expression level: presence of serum; for reduction of ADGN-100 or ADGN-106 efficiency by modification / reduction of level of luciferase (siRNA mediated silencing): absence of serum treatment; for reduction of efficiency / siRNA mediated luciferase silencing in the presence of serum: complexes incubated 3 hrs in 25% serum
Experimental: FIGS. 3A-3C show luciferase expression in A375/Luc cells treated with ADGN-peptide/siRNA complexes. A375/Luc cells cultured in 48 well plates were transfected with ADGN-peptide nanoparticles. ADGN-100, ADGN-106, ADGN-100RI, ADGN-106RI, ADGN-100 Stearyl, ADGN-Hydro1, ADGN-Hydro2, ADGN-Hydro3, ADGN-Hydro4, ADGN-Hydro5, ADGN-Hydro6 and ADGN-peptide/ADGN-100PEG 10% nanoparticles containing 10 nM or 25 nM siRNA were formed in sterile water, diluted in sterile water containing 5% Sucrose and filtered with 0.45 μm PES filters. FIG. 3C impact of peGylated ADGN-100 on the transfection efficiency. siRNA Luc (10 nM and 25 nM) were associated to ADGN-100 solution containing 5 to 50% of ADGN-100-PEG or to ADGN-100PEG. ADGN/siRNA complexes were incubated for 3 hrs in the presence of 25% serum prior transfection. Luciferase expression was monitored 48 hours post transfection and results were reported as RLU (luminescence):mg of protein.
Complex formation with siRNA. The following protocols were used for the transfection of 2-5 106 Cells or Cells at confluency of about 70-80% cultured in 24 well plates. ADGN peptide/siRNA Luc particles were prepared at a 20:1 molar ratio of ADGN-Peptide/pGL4. using 20 nM siRNA. The siRNA duplex (10 and 25 nM) was diluted in 20 μl of sterile water (GIBCO) at room temperature. 1.5 or 3 μl of a Final Peptide Solution (55 μM) was added to obtain a total volume of 20 μl. The volume was adjusted to 50 μl with sterile water and was mixed gently with vortex 1 min low speed and incubated 30 min at room temperature. Then the volume was made up to 100 μl by adding sterile water containing 5% sucrose, and the solution was mixed gently with vortex 1 min low speed and incubate 5 min at 37° C. and then was proceeded to cell transfection.
Transfection protocol. Protocol is reported for 24 well plate format. Cells were cultured in Dulbecco's Modified Eagle's Medium (DMEM), supplemented with 2 mM glutamine, 1% antibiotics (streptomycin 10,000 μg/mL, penicillin, 10,000 IU/mL) and 10% (w/v) foetal calf serum (FCS), at 37° C. in a humidified atmosphere containing 5% CO2. 24 well plates seeded with 150,000 cells the day prior to transfection were grown to 50-60% confluence and set up to be at about 70% confluences at the time of transfection. Before transfection, cells were washed twice with DMEM. Cells were then overlaid with 0.1 ml of ADGN-peptide/cargo complex solution containing 0.25 μg mRNA, 0.15 μg plasmid DNA or 10-25 nM siRNA, mixed gently, and incubated for 10 min at 37° C. 0.2 mL of fresh DMEM, were added and cells were incubated for 20 min at 37° C. 1 mL of complete DMEM containing 15% FCS were then added in order to reach a final FCS concentration of 10%, without removing the overlay of ADGN-peptide/cargo complexes. Cells were returned to the incubator (37° C., 5% CO2) and 72 hrs post transfection.
ADGN-peptides were evaluated for cellular delivery of siRNA duplex targeting Luciferase in A375/Luc cells. siRNA targeting luciferase (10 and 25 nM) in sterile water (GIBCO) were mixed with ADGN-100, ADGN-100RI, ADGN-106, ADGN-106RI, ADGN-100 Stearyl, ADGN-100Hydro1, ADGN-100Hydro2, ADGN-100Hydro4, ADGN-100Hydro3, ADGN-100Hydro5 and ADGN-100Hydro6. ADGN-peptide/siRNA complexes were filtered with 0.45 μm PES filter. In order to evaluate the stability of the ADGN/siRNA complexes in high serum conditions, the complexes were incubated for 3 hrs in the presence of 25% serum, then A375/Luc cells were transfected and Luciferase expression was monitored at 48 hrs.

[2] = system: mice or rat models; experiment: Summary of cargo delivery to targeted organ (Table 1); assay type: in vivo
Description: Table 1 lists a summary of cell-penetrating peptides that have been proven successful in delivering various cargo molecules to on or more targeted organ (e.g., by intravenous (IV), intramuscular (IM), or subcutaneous (SQ) administration, or intratraccheal instillation or nebulization (NB)) in mice or rat models.

[3] = system: mice; experiment: In vivo delivery of pGL4 plasmid DNA, intramuscular administration, bioluminescence imaging; details: IM, 2.5 μg pGL4 plasmid
Experimental: FIGS. 7A-7B show the potency of ADGN-peptide variants for in vivo delivery of Luciferase expressing plasmid pGL4 via intramuscular administration in mice. ADGN-peptide/pGL4 luc particles containing 2.5 μg plasmid DNA were formed in sterile water, and then diluted in 5% sucrose. Mice received IV injection of 25 μl ADGN-peptide/pGL4 complexes. Luciferase expression was monitored by bioluminescence imaging after 12 h, 24 h and 48h (A). FIG. 7B show bioluminescence imaging at 24 hr in control and treated groups.
Stable ADGN-peptides/pGL4.11 DNA were evaluated for in vivo delivery of Luciferase mRNA via intravenous and intramuscular administrations. Animals were treated with single dose of pGL4.11 plasmid DNA of 5 μg. via IV and 2.5 μg via intramuscular administration.
For IM administration, mice received 25 μl (2.5 μg of pGL4 plasmid) IV injection of either ADGN-100/PGL4, ADGN-106/PGL4, ADGN-100RI/PGL4, ADGN-100hydro1/PGL4, ADGN-100hydro6/PGL4, ADGN-100 stearyl/PGL4 or ADGN-100/PGL4 complexes containing 10% or 20% of ADGN-100PEG (2 animals per group). As control, mice from group 3 (2 animals per group) received IV injection of 25 μl of naked PGL4 plasmid (2.5 μg).
Luciferase expression was monitored by bioluminescence. Bioluminescence imaging was performed after 12, 24, 48 and 72 hrs. Mice received an i.p. injection of 150 μg/g luciferin for noninvasive bioluminescence imaging (IVIS Kinetic; PerkinElmer, Waltham, MA, USA).

[4] = cargoes and route (IV, IM, SQ, NB) per peptide as listed in Table 1

Substance	reduction of luciferase expression level ([1]; 10 nM siRNA)	reduction of luciferase expression level ([1]; 25 nM siRNA)	reduction of ADGN-100 or ADGN-106 efficiency by modification [1]	reduction of efficiency / siRNA mediated luciferase silencing in the presence of serum [1]	Targeted Organ [2, 4]	increase of luciferase expression in the muscle / efficiency relative to ADGN-100 [3]	luciferase expression [3]	reduction of level of luciferase (siRNA mediated silencing) ([1]; 10 nM siRNA)	reduction of level of luciferase (siRNA mediated silencing) ([1]; 25 nM siRNA)	Targeted Organ ([2]; cargoes and route (IV, IM, SQ, NB) per peptide as listed in Table 1, listed as ADGN-100a)
akwllrwlsrwlrwlarwlr ([dA][dK][dW][dL][dL][dR][dW][dL][dS][dR][dW][dL][dR][dW][dL][dA][dR][dW][dL][dR]; also: retro-inverso) [ADGN-106-RI]	77%	95%	do not affected	not affected by the presence of serum	Liver/Lung					
Stearyl-βA-KWRSALWRWRLWRVRSWSR-NH2 (Stearyl-[βAla]KWRSALWRWRLWRVRSWSR-NH2; not fully specified; printed as Stearyl-βA-KWRSALWRWRLWRVRSWSR-NH2) [ADGN-100 Stearyl]			do not affected	20%	Lung/Liver/; also recorded: Kidney/Pancreas					
rswsrvrwlrwrwgasrwk ([dR][dS][dW][dS][dR][dV][dR][dW][dL][dR][dW][dR][dW]G[dA][dS][dR][dW][dK]; also: retro-inverso) [ADGN-100-RI]	77%	95%	do not affected	not affected by the presence of serum	Liver/Lung/; also recorded: Kidney/Spleen	6 fold	mediated Luciferase expression following IM administration			
Ac-GYVS-Aun-KWRSALWRWRLWRVRSWSR-NH2 (Ac-GYVS[Aun]KWRSALWRWRLWRVRSWSR-NH2; SMILES CC(=O)NCC(=O)N[C@@H](Cc1ccc(O)cc1)C(=O)N[C@H](C(=O)N[C@@H](CO)C(=O)NCCCCCCCCCCC(=O)N[C@@H](CCCCN)C(=O)N[C@@H](Cc1c[nH]c2ccccc12)C(=O)N[C@@H](CCCNC(=N)N)C(=O)N[C@@H](CO)C(=O)N[C@@H](C)C(=O)N[C@@H](CC(C)C)C(=O)N[C@@H](Cc1c[nH]c2ccccc12)C(=O)N[C@@H](CCCNC(=N)N)C(=O)N[C@@H](Cc1c[nH]c2ccccc12)C(=O)N[C@@H](CCCNC(=N)N)C(=O)N[C@@H](CC(C)C)C(=O)N[C@@H](Cc1c[nH]c2ccccc12)C(=O)N[C@@H](CCCNC(=N)N)C(=O)N[C@H](C(=O)N[C@@H](CCCNC(=N)N)C(=O)N[C@@H](CO)C(=O)N[C@@H](Cc1c[nH]c2ccccc12)C(=O)N[C@@H](CO)C(=O)N[C@@H](CCCNC(=N)N)C(N)=O)C(C)C)C(C)C) [ADGN-100 hydro-6]			do not affected	20%			mediated Luciferase expression following IM administration			
βALWRALWRLWRSLWRLLWKA ([βAla]LWRALWRLWRSLWRLLWKA) [ADGN-106]				90%	Liver/Lung		no significant expression	78%	93%	
Ac-GYVS-(G)4-KWRSALWRWRLWRVRSWSR-NH2 (Ac-GYVSGGGGKWRSALWRWRLWRVRSWSR-NH2) [ADGN-100 hydro-2]							no significant expression			
βAKWRSAGWRWRLW RVRSWSR (AKWRSAGWRWRLWRVRSWSR; N-terminal beta-alanine; VARIANT 1 beta-A) [ADGN-100]				90%			mediated Luciferase expression following IM administration	78%	93%	Lung/Liver/; also recorded: Kidney/Pancreas
